Assays:
[1] = target: T1, F876L mutant Androgen Receptor (AR-F876L) (Homo sapiens (Human), UniProt P10275, F877L); assay: LNCaP-AR-F876L ANT reporter assay (antagonist mode); format: cell-based; details: for IC50: pIC50 = −Log10(IC50 in Molar), read-out: LNCaP-AR-F876L ANT pIC50 (converted); for Emax: read-out: LNCaP-AR-F876L ANT MAX % Inh
[2] = target: T2, wild-type Androgen Receptor (AR-wt) (Homo sapiens (Human), UniProt P10275); assay: LNCaP-AR-wt ANT reporter assay (antagonist mode); format: cell-based; details: for IC50: pIC50 = −Log10(IC50 in Molar), read-out: LNCaP-AR-wt ANT pIC50 (converted); for Emax: read-out: LNCaP-AR-wt ANT MAX % Inh
[3] = target: T2, wild-type Androgen Receptor (AR-wt); assay: LNCaP-AR-wt AG reporter assay (agonist mode); format: cell-based; details: for EC50: pEC50 = −Log10(EC50 in Molar), read-out: LNCaP-AR-wt AG pEC50 (converted); for Emax: read-out: LNCaP-AR-wt AG MAX % Stim
[4] = target: T1, F876L mutant Androgen Receptor (AR-F876L); assay: LNCaP-AR-F876L AG reporter assay (agonist mode); format: cell-based; details: for EC50: pEC50 = −Log10(EC50 in Molar), read-out: LNCaP-AR-F876L AG pEC50 (converted); for Emax: read-out: LNCaP-AR-F876L AG MAX % Stim
rGABA-gated Cl− channel = assay: GABA-Gated Cl Channel Antagonist Radioligand Binding Assay; set-up: species or system rat; details: 10 μM single point, [35S]-TBPS, cerebral cortex membrane homogenates
Method in brief: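 Rat cerebral cortex membranes (120 μg protein) incubated 120 min at 22° C with 3 nM […] in 50 mM Na2HPO4/KH2PO4 pH 7.4, 500 mM NaCl; nonspecific binding defined with 20 μM picrotoxinin. Bound label counted after filtration; values are percent inhibition of specific binding at 10 μM compound.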

[5] = maximum % inhibition of R1881 control response over the tested concentration range
[6] = maximum % stimulation (agonist response) over the tested concentration range
[7] = antagonist mode, maximum % inhibition of R1881 control response over tested concentration range
[8] = agonist mode, maximum % stimulation over tested concentration range

T2 sequence (P10275 whole entry): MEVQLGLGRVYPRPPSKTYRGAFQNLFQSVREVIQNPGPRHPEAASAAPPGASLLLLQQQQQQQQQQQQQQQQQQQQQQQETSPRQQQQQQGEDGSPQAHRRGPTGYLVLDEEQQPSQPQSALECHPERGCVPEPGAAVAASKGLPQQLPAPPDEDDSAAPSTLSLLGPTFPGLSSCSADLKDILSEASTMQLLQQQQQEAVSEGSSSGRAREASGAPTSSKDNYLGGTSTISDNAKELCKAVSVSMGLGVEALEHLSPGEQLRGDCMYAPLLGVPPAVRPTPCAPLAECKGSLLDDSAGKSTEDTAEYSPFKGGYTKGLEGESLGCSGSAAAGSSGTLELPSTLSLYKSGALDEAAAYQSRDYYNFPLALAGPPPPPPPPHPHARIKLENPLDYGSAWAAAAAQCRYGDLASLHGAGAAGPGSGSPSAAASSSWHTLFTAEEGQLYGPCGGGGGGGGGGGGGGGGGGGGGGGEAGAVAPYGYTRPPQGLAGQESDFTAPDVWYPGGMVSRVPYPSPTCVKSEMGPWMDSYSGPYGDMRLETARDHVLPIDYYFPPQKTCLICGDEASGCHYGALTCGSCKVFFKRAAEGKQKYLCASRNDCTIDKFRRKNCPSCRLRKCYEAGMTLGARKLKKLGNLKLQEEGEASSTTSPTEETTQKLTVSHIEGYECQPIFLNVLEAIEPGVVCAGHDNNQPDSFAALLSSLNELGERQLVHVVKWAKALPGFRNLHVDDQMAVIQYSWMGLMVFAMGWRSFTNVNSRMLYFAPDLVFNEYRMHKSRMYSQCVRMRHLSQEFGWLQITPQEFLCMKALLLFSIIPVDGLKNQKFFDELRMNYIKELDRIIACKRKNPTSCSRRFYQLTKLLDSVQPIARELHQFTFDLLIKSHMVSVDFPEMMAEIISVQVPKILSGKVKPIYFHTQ
T1 sequence (P10275 whole entry F877L): as the sequence (P10275 whole entry) above, with F877L counted along it

Row | SMILES | IC50 ([1]; antagonist mode) | Emax [1, 5] | IC50 ([2]; antagonist mode) | Emax [2, 5] | EC50 ([3]; agonist mode) | Emax [3, 6] | EC50 ([4]; agonist mode) | Emax [4, 6] | rGABA-gated Cl− channel % inh @10 μM (rGABA-gated Cl− channel) | Emax [1, 7] | Emax [2, 7] | Emax [3, 8] | Emax [4, 8]
1 | C[N@+]1([O-])CC[C@@H](Oc2ccc(N3C(=S)N(c4cnc(C#N)c(C(F)(F)F)c4)C(=O)C34CCC4)cc2)CC1 [Cpd 191, 5-[8-[4-(1-methyl-1-oxido-piperidin-1-ium-4-yl)oxyphenyl]-5-oxo-7-thioxo-6,8-diazaspiro[3.4]octan-6-yl]-3-(trifluoromethyl)pyridine-2-carbonitrile] | 1120 nM | – | 1380 nM | – | > 15100 nM | – | > 15100 nM | – | 47.9% | 99.8% | 99.4% | -0.2% | 0%
2 | N#Cc1ncc(N2C(=O)C3(CCC3)N(c3ccc(CC4CCC(N)CC4)cc3)C2=S)cc1C(F)(F)F (stereo not drawn) [Cpd 233, 5-[8-[4-[(4-aminocyclohexyl)methyl]phenyl]-5-oxo-7-thioxo-6,8-diazaspiro[3.4]octan-6-yl]-3-(trifluoromethyl)pyridine-2-carbonitrile] | 186 nM | – | 240 nM | – | > 15100 nM | – | > 15100 nM | – | 80.2% | 103% | 108% | -0.2% | 0%
3 | N#Cc1ncc(N2C(=O)C3(CCC3)N(c3ccc(CC4CCNCC4)cc3)C2=S)cc1C(F)(F)F [Cpd 234, 5-[5-oxo-8-[4-(4-piperidylmethyl)phenyl]-7-thioxo-6,8-diazaspiro[3.4]octan-6-yl]-3-(trifluoromethyl)pyridine-2-carbonitrile] | 257 nM | – | 479 nM | – | > 15100 nM | – | > 15100 nM | – | 57.4% | 102% | 100% | 0.1% | 0%
4 | N#Cc1ncc(N2C(=O)C3(CCC3)N(c3ccc(SC4CCNCC4)cc3)C2=S)cc1C(F)(F)F [Cpd 240, 5-[5-oxo-8-[4-(4-piperidylsulfanyl)phenyl]-7-thioxo-6,8-diazaspiro[3.4]octan-6-yl]-3-(trifluoromethyl)pyridine-2-carbonitrile] | 224 nM | – | 457 nM | – | > 15100 nM | – | > 15100 nM | – | 44.7% | 105% | 106% | 1% | 0%
5 | CN1CCOC(c2ccc(N3C(=S)N(c4cnc(C#N)c(C(F)(F)F)c4)C(=O)C34CCC4)cc2)C1 (stereo not drawn) [Cpd 241, 5-[8-[4-(4-methylmorpholin-2-yl)phenyl]-5-oxo-7-thioxo-6,8-diazaspiro[3.4]octan-6-yl]-3-(trifluoromethyl)pyridine-2-carbonitrile] | 158 nM | – | 224 nM | – | > 15100 nM | – | > 15100 nM | – | 87.4% | 103% | 103% | -0.1% | 1.1%
6 | CN1CCC(Sc2ccc(N3C(=S)N(c4cnc(C#N)c(C(F)(F)F)c4)C(=O)C34CCC4)cc2)CC1 [Cpd 242, 5-[8-[4-[(1-methyl-4-piperidyl)sulfanyl]phenyl]-5-oxo-7-thioxo-6,8-diazaspiro[3.4]octan-6-yl]-3-(trifluoromethyl)pyridine-2-carbonitrile] | 245 nM | – | 562 nM | – | > 15100 nM | – | > 15100 nM | – | 60.2% | 104% | 99.9% | 0.1% | -0.1%
7 | N#Cc1ncc(N2C(=O)C3(CCC3)N(c3ccc(C4CNCCO4)cc3)C2=S)cc1C(F)(F)F (stereo not drawn) [Cpd 243, 5-[8-(4-morpholin-2-ylphenyl)-5-oxo-7-thioxo-6,8-diazaspiro[3.4]octan-6-yl]-3-(trifluoromethyl)pyridine-2-carbonitrile] | 347 nM | – | 1620 nM | – | > 15100 nM | – | > 15100 nM | – | 57.2% | 100% | 101% | 0.2% | 0.7%

Continued, values first:

Row | IC50 ([1]; antagonist mode) | Emax [1, 5] | IC50 ([2]; antagonist mode) | Emax [2, 5] | EC50 ([3]; agonist mode) | Emax [3, 6] | EC50 ([4]; agonist mode) | Emax [4, 6] | rGABA-gated Cl− channel % inh @10 μM (rGABA-gated Cl− channel) | Emax [1, 7] | Emax [2, 7] | Emax [3, 8] | Emax [4, 8] | SMILES
8 | 174 nM | 100% | 339 nM | 99.2% | > 15100 nM | 0.2% | > 15100 nM | -0.1% | 94.9% | – | – | – | – | COCCn1cc2cc(N3C(=S)N(c4cnc(C#N)c(C(F)(F)F)c4)C(=O)C34CCC4)ccc2n1 [Cpd 172, 5-[8-[2-(2-methoxyethyl)indazol-5-yl]-5-oxo-7-thioxo-6,8-diazaspiro[3.4]octan-6-yl]-3-(trifluoromethyl)pyridine-2-carbonitrile]
9 | 219 nM | 101% | 407 nM | 102% | > 15100 nM | 0% | > 15100 nM | 0.1% | 94.9% | – | – | – | – | Cn1cc2cc(N3C(=S)N(c4cnc(C#N)c(C(F)(F)F)c4)C(=O)C34CCC4)ccc2n1 [Cpd 174, 5-[8-(2-methylindazol-5-yl)-5-oxo-7-thioxo-6,8-diazaspiro[3.4]octan-6-yl]-3-(trifluoromethyl)pyridine-2-carbonitrile]
10 | 141 nM | 101% | 269 nM | 101% | > 15100 nM | 0.1% | > 15100 nM | 0% | 25.6% | – | – | – | – | COCCn1cc2cc(N3C(=S)N(c4cnc(C#N)c(OC)c4)C(=O)C34CCC4)ccc2n1 [Cpd 175, 3-methoxy-5-[8-[2-(2-methoxyethyl)indazol-5-yl]-5-oxo-7-thioxo-6,8-diazaspiro[3.4]octan-6-yl]pyridine-2-carbonitrile]
11 | 97.7 nM | 104% | 219 nM | 106% | > 15100 nM | 0.2% | > 15100 nM | 0.2% | 36.7% | – | – | – | – | N#Cc1ncc(N2C(=O)C3(CCC3)N(c3ccc4nn(C5CCNCC5)cc4c3)C2=S)cc1Cl [Cpd 180, 3-chloro-5-[5-oxo-8-[2-(4-piperidyl)indazol-5-yl]-7-thioxo-6,8-diazaspiro[3.4]octan-6-yl]pyridine-2-carbonitrile]
12 | 275 nM | 101% | 513 nM | 100% | > 15100 nM | 0.3% | > 15100 nM | -0.1% | 37.9% | – | – | – | – | CN1CCC(n2ncc3cc(N4C(=S)N(c5cnc(C#N)c(Cl)c5)C(=O)C45CCC5)ccc32)CC1 [Cpd 183, 3-chloro-5-[8-[1-(1-methyl-4-piperidyl)indazol-5-yl]-5-oxo-7-thioxo-6,8-diazaspiro[3.4]octan-6-yl]pyridine-2-carbonitrile]
13 | 380 nM | – | 407 nM | – | > 15100 nM | – | > 15100 nM | – | 27.9% | 100% | 101% | 0% | 0% | N#Cc1ncc(N2C(=O)C3(CCC3)N(c3ccc(CN4CCNCC4)cc3)C2=S)cc1Cl [Cpd 207, 3-chloro-5-[5-oxo-8-[4-(piperazin-1-ylmethyl)phenyl]-7-thioxo-6,8-diazaspiro[3.4]octan-6-yl]pyridine-2-carbonitrile]
14 | 209 nM | – | 339 nM | – | > 15100 nM | – | > 15100 nM | – | 18.6% | 100% | 101% | 0.4% | 0.5% | COc1cc(N2C(=O)C3(CCC3)N(c3ccc4c(cnn4C4CCN(CCO)CC4)c3)C2=S)cnc1C#N [Cpd 225, 5-[8-[1-[1-(2-hydroxyethyl)-4-piperidyl]indazol-5-yl]-5-oxo-7-thioxo-6,8-diazaspiro[3.4]octan-6-yl]-3-methoxy-pyridine-2-carbonitrile]

From patent US10981926B2 (Janssen Pharmaceutica NV, priority 2016, dated 2021)
